According to patent US20110123617A1, “CLIOQUINOL FOR THE TREATMENT OF HEMATOLOGICAL MALIGNANCIES” (priority 2007, published 2011):

What was measured:
[1] = test system: proteasome in primary AML cells; assay: Proteasome activity in primary AML cells; format: cell-based, human
Procedure: Proteasome activity of primary acute myeloid leukemia (AML) blasts or normal peripheral blood stem cells (PBSC) after twenty hours of treatment with clioquinol (CQ), or an equimolar concentration of […] and CuCl2 (Cu). After treatment, the preferential chymotrypsin-like substrate Suc-LLVY-AMC was added and the rate of free AMC was measured over time with a florescent spectrophotometric plate reader (excitation=380 nm, emission=460 nm). Cellular proteins were extracted from cells with lysis buffer (50 mM HEPES pH 7.5, 150 mM NaCl, 2 mM ATP, and 1% Triton X-100). The chymotrypsin-like activity of the proteasome was measured by incubating equal amounts of protein with the preferential chymotrypsin-like substrate Suc-LLVY-AMC in assay buffer (50 mM Tris-HCl, pH 7.5, 150 mM NaCl) for two hours. After incubation, […] and the rate of free AMC was measured over time with a florescent spectrophotometric plate reader (excitation=380 nm, emission=460 nm). The inventors examined the effect of clioquinol and copper on primary AML cells and normal hematopoietic cells. Primary AML were obtained from the peripheral blood of patients with AML. Normal hematopoietic stem cells (PBSC) were obtained from the peripheral blood of volunteers donating stem cells for allotransplant. […] After incubation, cell lysates were prepared and the enzymatic activity of the proteasome measured as above.

[2] = patients, after oral administration; cited from earlier work
[3] = test system: MY5 cells; assay: Apoptosis by Annexin V and PI staining and flow cytometry; format: cell-based
Procedure: (TM) (20 μM). Apoptosis was measured by Annexin V and PI staining and flow cytometry. Cell viability was assessed with the CellTiter96® Aqueous Non-Radioactive Assay kit according to manufactures' instructions (Promega). Apoptosis was measured by flow cytometry to detect cell surface Annexin V expression and propidium iodide (PI) uptake (Biovision, Mountain View, Calif., USA) as previously described (20)

[4] = test system: K562 leukemia cells; assay: K562 leukemia xenograft; format: in vivo, mouse; details: 100 mg/kg for 5 of 7 days, subcutaneous K562
Text: Similar results were obtained with a K562 leukemia xenograft.

[5] = test system: chymotrypsin-like activity of the proteasome; assay: Proteasome activity after treatment of intact cell lines; format: cell-based; details: intact leukemia and myeloma cell lines
Procedure: A) Proteasome activity of MDAY-D2 and JJN3 cellular extracts after two hours of treatment with clioquinol (CQ), CuCl2 (Cu), or an equimolar concentration of CQ and Cu. After treatment, the preferential chymotrypsin-like substrate Suc-LLVY-AMC was added and the rate of free AMC was measured over time with a florescent spectrophotometric plate reader (excitation=380 nm, emission=460 nm). B) Proteasome activity of intact MDAY-D2 and JJN3 cells after two hours of treatment with clioquinol (CQ), CuCl2 (Cu), or an equimolar concentration of CQ and Cu. After treatment, the preferential chymotrypsin-like substrate Suc-LLVY-AMC was added and the rate of free AMC was measured over time with a florescent spectrophotometric plate reader (excitation=380 nm, emission=460 nm). Cellular proteins were extracted from cells with lysis buffer (50 mM HEPES pH 7.5, 150 mM NaCl, 2 mM ATP, and 1% Triton X-100). The chymotrypsin-like activity of the proteasome was measured by incubating equal amounts of protein with the preferential chymotrypsin-like substrate Suc-LLVY-AMC in assay buffer (50 mM Tris-HCl, pH 7.5, 150 mM NaCl) for two hours. After incubation, […] and the rate of free AMC was measured over time with a florescent spectrophotometric plate reader (excitation=380 nm, emission=460 nm). […]

[6] = test system: cyclin D2 promoter; assay: High throughput screen for inhibitors of cyclin D2 transactivation (luciferase assay); format: cell-based, mouse; details: NIH 3T3 cells over-expressing c-maf, ~5 μM, sixteen hours
Text: The promoter of cyclin D2 (−894 to −4), containing c-maf responsive element sequence (MARE), was cloned from HeLa cell genomic DNA and subcloned into the pGL2 luciferase reporter vector (Promega, Madison, Wis.). This construct was co-transfected with pcDNA3.1 containing a neomycin resistance gene into NIH3T3 wild type cells and NIH3T3 cells stably over-expressing c-maf-IRES-GFP. Cells stably expressing c-maf, GFP, and luciferase were selected for further application. NIH3T3 cells stably expressing c-maf and the cyclin D2 promoter driving luciferase (13,000 cells per well) were plated in 96-well plates by the Biomek FX liquid handler (Beckman, Fullerton, Calif.). The same workstation was used for plate formatting and reagent distribution. […] After incubation, cyclin D2 transactivation was assessed by the luciferase assay and viability was assessed by the MTS assay. Luciferase activity was assessed according to the manufacturer's instructions (Promega, Madison, Wis.). […] After 10 min incubation, an equal volume of Bright-Glo Luciferase substrate (Promega) was added and the luminescence signal was detected with a 96-well Luminoskan luminescence plate reader (Thermo Labsystem, Waltham, Mass.) with a 5 second integration. […] Sixteen hours after the addition of the compounds, luciferase expression was measured as a marker of cyclin D2 transactivation. […]

For `Oc1c(I)cc(Cl)c2cccnc12` [clioquinol, 5-chloro-7-iodo-8-hydroxyquinoline], which “enzymatic activity of the proteasome” value [1] is on record?
Its value is “inhibited the proteasome”.

What about the trough serum concentrations [2] of the same compound?
Its trough serum concentrations is 20 µM.

What about the clioquinol-induced cell death ([3]; copper supplemented in the medium (CuCl2 20 μM)) of the same compound?
Its clioquinol-induced cell death is “enhanced the toxicity of clioquinol”.

And the “viability of MY5 cells” value ([3]; twenty-four hours)?
The value was “reduces the viability of MY5 cells”.

And the clioquinol-induced cell death ([3]; with copper chelator tetrathiomoylbdate (20 μM))?
Its clioquinol-induced cell death is “abrogated clioquinol-induced cell death”.

What about the “tumor growth (tumor volume)” value [4] of the same compound?
Its value is “delayed tumor growth”.

What about the “chymotrypsin-like activity of the proteasome” value [5] of the same compound?
The value was “inhibited chymotrypsin-like activity at low micromolar concentrations”.

What about the “cyclin D2 transactivation (luciferase expression)” value [6] of the same compound?
The value was “c-maf independent inhibitors of the cyclin D2 promoter”.
